# From patent publication US10322108B2, “N-benzoate group substituted benzopyrroline-2-one derivative and use thereof” (BEIJING HANMI PHARMACEUTICAL CO., LTD., priority 2015, dated 2019)
# Biological target: RORγ-LBD (Homo sapiens (Human), UniProt P51449)
# Experiment: LanthaScreen TR-FRET screening of RORγ-LBD / co-activator (Fluorescein-D22) interaction
# Settings: not given
# Sequence of RORγ-LBD (P51449 269-508): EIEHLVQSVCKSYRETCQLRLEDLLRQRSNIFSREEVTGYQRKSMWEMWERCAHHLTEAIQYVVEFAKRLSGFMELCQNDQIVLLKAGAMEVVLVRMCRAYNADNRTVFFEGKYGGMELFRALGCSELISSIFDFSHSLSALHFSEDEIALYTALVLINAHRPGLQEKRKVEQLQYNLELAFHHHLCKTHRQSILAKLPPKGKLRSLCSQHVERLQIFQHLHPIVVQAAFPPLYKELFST
row,Structure (SMILES),IC50
1,"O=C(O)c1ccc(N2C(=O)/C(=C/c3c(F)cccc3F)c3c(F)cccc32)cc1 [Example 18B, (cis)-4-(3-(2,6-difluoro-benzylidene)-4-fluoro-indolin-2-on-1-yl)-benzoic acid]",1000 to 10000 nM
2,"Cc1cccc2c1/C(=C/c1c(Cl)cccc1C1CC1)C(=O)N2c1ccc(C(=O)O)c(Cl)c1 [Example 24, (trans)-4-(3-(2-chloro-6-cyclopropyl-benzylidene)-4-methylindolin-2-on-1-yl)-2-chloro-benzoic acid]",100 to 1000 nM
3,"CCCc1cccc(Cl)c1/C=C1/C(=O)N(c2ccc(C(=O)O)cc2)c2cccc(F)c21 [Example 20B, (cis)-4-(3-(2-chloro-6-n-propyl-benzylidene)-4-fluoro-indolin-2-on-1-yl)-benzoic acid]",100 to 1000 nM
4,"O=C(O)c1ccc(N2C(=O)/C(=C/c3c(F)cccc3Cl)c3c(F)cccc32)cc1 [Example 17B, (cis)-4-(3-(2-chloro-6-fluoro-benzylidene)-4-fluoro-indolin-2-on-1-yl)-benzoic acid]",100 to 1000 nM
5,"CCCc1cccc(Cl)c1/C=C1\C(=O)N(c2ccc(C(=O)O)cc2)c2cccc(F)c21 [Example 20A, (trans)-4-(3-(2-chloro-6-n-propyl-benzylidene)-4-fluoro-indolin-2-on-1-yl)-benzoic acid]",100 to 1000 nM
6,Cc1cccc2c1/C(=C/c1c(Cl)cccc1C1CC1)C(=O)N2c1ccc(C(=O)O)c(N)c1 [Example 33],1000 to 10000 nM
7,"COc1cccc2c1/C(=C/c1c(Cl)cccc1Cl)C(=O)N2c1ccc(C(=O)O)c(O)c1 [Example 11, (trans)-4-(3-(2,6-dichloro-benzylidene)-4-methoxyindolin-2-on-1-yl)-2-hydroxybenzolic acid]",100 to 1000 nM
8,"Cc1cccc(Cl)c1/C=C1\C(=O)N(c2ccc(C(=O)O)cc2)c2cccc(C)c21 [Example 29, (trans)-4-(3-(2-chloro-6-methyl-benzylidene)-4-methylindolin-2-on-1-yl)-benzoic acid]",100 to 1000 nM
9,O=C(O)c1ccc(N2C(=O)/C(=C\c3c(Cl)cccc3C3CC3)c3c(-c4ccccc4)cccc32)cc1 [Example 13],100 to 1000 nM
10,"O=C(O)c1ccc(N2C(=O)/C(=C\c3c(F)cccc3Cl)c3c(F)cccc32)cc1 [Example 17A, (trans)-4-(3-(2-chloro-6-fluoro-benzylidene)-4-fluoro-indolin-2-on-1-yl)-benzoic acid]",100 to 1000 nM
11,"COc1cccc(Cl)c1/C=C1\C(=O)N(c2ccc(C(=O)O)cc2)c2cccc(C)c21 [Example 32, (trans)-4-(3-(2-chloro-6-methoxy-benzylidene)-4-methylindolin-2-on-1-yl)-benzoic acid]",1000 to 10000 nM
12,"Cc1cccc2c1/C(=C\c1c(Cl)cccc1C1CC1)C(=O)N2c1ccc(C(=O)O)cc1 [Example 2B, (trans)-4-(3-(2-chloro-6-cyclopropyl-benzylidene)-4-methylindolin-2-on-1-yl)-benzoic acid]",100 to 1000 nM
13,"O=C(O)c1ccc(N2C(=O)/C(=C/c3c(Cl)cccc3C3CC3)c3c(F)cccc32)cc1O [Example 21B, (cis)-4-(3-(2-chloro-6-cyclopropyl-benzylidene)-4-fluoro-indolin-2-on-1-yl)-2-hydroxy-benzoic acid]",100 to 1000 nM
14,Cc1cccc2c1/C(=C/c1c(Cl)cccc1C1CCC1)C(=O)N2c1ccc(C(=O)O)c(O)c1 [Example 35],100 to 1000 nM
15,"COc1cccc2c1/C(=C/c1c(Cl)cccc1Cl)C(=O)N2c1ccc(C(=O)O)cc1 [Example 31, (trans)-4-(3-(2,6-dichloro-benzylidene)-4-methoxyindolin-2-on-1-yl)-benzoic acid]",1000 to 10000 nM
16,"Cc1cccc2c1/C(=C/c1c(Cl)cccc1C1CC1)C(=O)N2c1ccc(C(=O)O)c(F)c1 [Example 25, (trans)-4-(3-(2-chloro-6-cyclopropyl-benzylidene)-4-methylindolin-2-on-1-yl)-2-fluoro-benzoic acid]",100 to 1000 nM

# Same assay, conditions: read-out: IC50 Values; TR-FRET, 2 nM RORγ-LBD, 150 nM Fluorescein-D22 co-activator
row,Structure (SMILES),IC50
1,"Cc1cccc2c1/C(=C/c1c(Cl)cccc1Br)C(=O)N2c1ccc(C(=O)O)c(O)c1 [Example 7, (trans)-4-(3-(2-chloro-6-bromo-benzylidene)-4-methylindolin-2-on-1-yl)-2-hydroxybenzolic acid]",< 100 nM
2,"O=C(O)c1ccc(N2C(=O)/C(=C\c3c(Cl)cccc3C3CC3)c3c(F)cccc32)cc1 [Example 16A, (trans)-4-(3-(2-chloro-6-cyclopropyl-benzylidene)-4-fluoro-indolin-2-on-1-yl)-benzoic acid]",< 100 nM
3,Cc1cccc2c1/C(=C/c1c(Cl)cccc1C1CCC1)C(=O)N2c1ccc(C(=O)O)cc1 [Example 34],< 100 nM
4,"O=C(O)c1ccc(N2C(=O)/C(=C/c3c(Cl)cccc3C(F)(F)F)c3c(F)cccc32)cc1 [Example 19B, (cis)-4-(3-(2-chloro-6-trifluoromethyl-benzylidene)-4-fluoro-indolin-2-on-1-yl)-benzoic acid]",< 100 nM
5,COc1cccc2c1/C(=C/c1c(Cl)cccc1C1CC1)C(=O)N2c1ccc(C(=O)O)c(O)c1 [Example 8],< 100 nM
6,"Cc1cccc2c1/C(=C/c1c(Cl)cccc1C(F)(F)F)C(=O)N2c1ccc(C(=O)O)c(O)c1 [Example 6, (trans)-4-(3-(2-chloro-6-(trifluoromethyl)-benzylidene)-4-methylindolin-2-on-1-yl)-2-hydroxybenzoic acid]",< 100 nM
7,"Cc1cccc2c1/C(=C/c1c(Cl)cccc1C(C)C)C(=O)N2c1ccc(C(=O)O)c(O)c1 [Example 36, (trans)-4-(3-(2-chloro-6-isopropyl-benzylidene)-4-methylindolin-2-on-1-yl)-2-hydroxybenzolic acid]",< 100 nM
8,Cc1cccc2c1/C(=C/c1c(F)cccc1Cl)C(=O)N2c1ccc(C(=O)O)c(O)c1 [Example 9],< 100 nM
9,COc1cccc2c1/C(=C/c1c(Cl)cccc1C1CC1)C(=O)N2c1ccc(C(=O)O)cc1 [Example 30],< 100 nM
10,"Cc1cccc2c1/C(=C/c1c(Cl)cccc1Cl)C(=O)N2c1ccc(C(=O)O)cc1 [Example 5, (trans)-4-(3-(2,6-dichlorobenzylidene)-4-methylindolin-2-on-1-yl)-benzoic acid]",< 100 nM
11,"O=C(O)c1ccc(N2C(=O)/C(=C\c3c(Cl)cccc3C3CC3)c3c(C4CC4)cccc32)cc1O [Example 12, (trans)-4-(3-(2-chloro-6-cyclopropyl-benzylidene)-4-cyclopropylindolin-2-on-1-yl)-2-hydroxybenzolic acid]",< 100 nM
12,"CCc1cccc(Cl)c1/C=C1\C(=O)N(c2ccc(C(=O)O)c(O)c2)c2cccc(C)c21 [Example 37, (trans)-4-(3-(2-chloro-6-ethyl-benzylidene)-4-methylindolin-2-on-1-yl)-2-hydroxybenzolic acid]",< 100 nM
13,"O=C(O)c1ccc(N2C(=O)/C(=C\c3c(Cl)cccc3Cl)c3c(Cl)cccc32)cc1 [Example 23, (trans)-4-(3-(2,6-dichloro-benzylidene)-4-chloro-indolin-2-on-1-yl)-benzoic acid]",< 100 nM
14,"O=C(O)c1ccc(N2C(=O)/C(=C/c3c(Cl)cccc3Cl)c3c(F)cccc32)cc1O [Example 22B, (cis)-4-(3-(2,6-dichloro-benzylidene)-4-fluoro-indolin-2-on-1-yl)-2-hydroxy-benzoic acid]",< 100 nM
15,"O=C(O)c1ccc(N2C(=O)/C(=C\c3c(Cl)cccc3C(F)(F)F)c3c(F)cccc32)cc1 [Example 19A, (trans)-4-(3-(2-chloro-6-trifluoromethyl-benzylidene)-4-fluoro-indolin-2-on-1-yl)-benzoic acid]",< 100 nM
